Experimental data as given in patent US5840303A, “Peptides for inducing cytotoxic T lymphocyte responses to hepatitis B virus” (The Scripps Research Foundation, priority 1995, dated 1998).
Residues, ends and D or L forms follow the SMILES beside them.

What was measured:
[1] = test system: HBV core specific CTL from PBMC of patients with acute hepatitis B; settings: patient
[2] = test system: autologous target cells pulsed with peptide HBc11-27; experiment: Immunodominance of the HBc11-27 CTL epitope in HLA-A2 positive subjects; format: cell-based, human; settings: one of the four chronic patients
Description: To assess the immunodominance in the HLA-A2 haplotype of the CTL epitope(s) contained in peptide HBc11-27, eight additional subjects with self-limited acute hepatitis B infection, four patients with chronic active hepatitis B, and eight healthy subjects without evidence of previous exposure to HBV (all HLA-A2 positive) were repeatedly tested.
Patient to patient variations in the pattern of response to the peptide were observed during the course of the illness. The cytolytic activity was generally detectable during the icteric phase when transaminase values were high; in some patients the response was long-lasting, being still detectable when GPT levels had already become normal, and in other subjects the lytic activity became undetectable 2 or 3 weeks after the transaminase peak when GPT levels were still slightly altered.

Row | SMILES | cytotoxic activity of unstimulated PBMC against autologous B-LCL fed with peptide [1] | cytotoxicity against the relevant peptide sequence [2]
1 | CC(C)C[C@H](NC(=O)[C@@H](NC(=O)[C@H](CO)NC(=O)[C@@H](N)CC(C)C)[C@@H](C)O)C(=O)N1CCC[C@H]1C(=O)N[C@@H](CCC(=O)O)C(=O)N[C@H](C(=O)N[C@H](C(=O)N[C@H](C(=O)N[C@H](C(=O)N[C@@H](CCCNC(=N)N)C(=O)N[C@@H](CCCNC(=N)N)C(=O)N[C@@H](CCCNC(=N)N)C(=O)NCC(=O)N[C@@H](CCCNC(=N)N)C(=O)N[C@@H](CO)C(=O)O)C(C)C)C(C)C)[C@@H](C)O)[C@@H](C)O [140-155] | No cytotoxic activity was observed | 
2 | CC(C)C[C@H](NC(=O)[C@H](CC(C)C)NC(=O)[C@H](CCC(=O)O)NC(=O)[C@@H](NC(=O)[C@@H](NC(=O)[C@H](C)N)[C@@H](C)O)C(C)C)C(=O)N[C@@H](CO)C(=O)N[C@@H](Cc1ccccc1)C(=O)N[C@@H](CC(C)C)C(=O)N1CCC[C@H]1C(=O)N[C@@H](CO)C(=O)N[C@@H](CC(=O)O)C(=O)N[C@@H](Cc1ccccc1)C(=O)N[C@@H](Cc1ccccc1)C(=O)N1CCC[C@H]1C(=O)N[C@@H](CO)C(=O)N[C@H](C(=O)O)C(C)C [HBc11-27] (H-ATVELLSFLPSDFFPSV-OH) |  | detectable, though very low levels of cytotoxicity
